Data as given in publication PMC5267425, “Identification of small molecule modulators of HIV-1 Tat and Rev protein accumulation” (Retrovirology, 2017).
Values joined by “and” are separate entries in the source; they are usually repeats but may differ in a detail not shown here. Equal values may be shown once.

Tested on: alternative splicing of host transcripts in HeLa rtTA HIV∆Mls cells
Assay: RT-PCR of host alternative splicing events (PSI), capillary electrophoresis
Type: cell-based
Set-up: PSI ZNF827_1 / PSI RAN_1 / PSI SEC24B_1 / PSI SMN2_1 / PSI TRIM37_1 / PSI RPS24_1 / PSI PDCL_1 / PSI SMN2_2 / PSI SETD5_1 / PSI RAI14_1 / PSI TPM1_1 / PSI SPAG9_1 / PSI POLDIP3_1 / PSI SRPK2_1 / PSI POMT1_1: concentration or dose not given beside the values
Settings: for DPSI TPM1_1: P Value 0.330
Protocol: To assess the effect of compounds on expression/alternative splicing of cellular RNA, two approaches were used. For both, total RNA was prepared from DMSO or compound-treated cells. In the first assay, samples were assayed by medium throughput RT-PCR to determine the inclusion levels of alternatively spliced exons and splice sites located in 73 selected events. 73 primer sets containing a fluorescently (5-FAM) labeled primer for each, were used in RT-PCR. PCR products generated were denatured in formamide and quantified using ABI Prism capillary sequencer (Life Technologies). The fragment analysis was performed on the PeakScanner software (Life Technologies) in batch mode and automated using custom scripts written in Python. The inclusion level of each exon was calculated as the amount of transcripts carrying the alternative exon relative to the total amount of all transcripts detected in the PCR reaction and results are summarized for compound-treatment in comparison to DMSO treatment. In the second assay, extracted RNA was processed using the Illumina TruSeq RNA Sample Preparation Kit (Illumina) according to the manufacturer’s instructions. The cDNA library generated was validated (passed quality control on a Bioanalyzer 1000 DNA chip (Agilent)), normalized and pooled for cluster generation. cDNA libraries were sequenced on the Illumina HiSeq 2500 (paired-end, 125 bp) with version 4 chemistry following manufacturer’s protocols. The full human genome and transcriptomic sequences were downloaded from the UCSC Genome Browser (genome.ucsc.edu) database and Ensembl (www.ensembl.org), respectively, as described by Irimia et al.. Exon annotations and genomic coordinates for alternative splicing (AS) analysis were derived from tables downloaded from the UCSC Genome Browser database. To determine gene expression (GE) or alternative splicing (AS) changes in an unbiased way, the effective number of unique mappable positions in each transcript (i.e. the effective length) was determined by aligning sequences with unique transcriptomic alignment to the human genome using Bowtie. Reads with one unique genomic alignment were then aligned against the canonical transcriptome and, for each transcript, the number of reads with one unique transcriptomic alignment were counted. The expression level of genes was quantified as corrected ‘reads per kilobase of exon model per million mapped reads’ (cRPKM), a widely used metric to estimate gene expression levels. The expression cutoff was 0.5 cRPKM, corresponding to the transcript of the gene being present if there were ≥10 reads that mapped uniquely to a single genomic locus. Approximately 19,847 Ensembl annotated protein-coding genes were compared to create a gene list of differentially expressed genes. Genes were considered differentially expressed if fold changes in cRPKM was ≥2 in compound-treated versus DMSO-treated samples.

[1] = of 70 AS events, 5193892 vs DMSO, HeLa rtTA-HIV-DMls cells

## COc1ccc(C=NNC(=O)c2ccccc2O)cc1O [Compound 892, 2-hydroxy-N′-(3-hydroxy-4-methoxybenzylidene)benzohydrazide]
chr14:72815742-72815885, HeLa rtTA-HIV-DMls cells, replicates 25, 26, 27
  PSI NUMB_2: 26.00
chr14:72815742-72815885, mean PSI 5193892 minus DMSO, n=3, P Value 0.004
  DPSI NUMB_2: 8.67%
chr14:72820542-72820835, HeLa rtTA-HIV-DMls cells, replicates 25, 26, 27
  PSI NUMB_2: 82.00 and 96.00 and 95.00
chr14:72820542-72820835, mean PSI 5193892 minus DMSO, n=3, P Value 0.525
  DPSI NUMB_2: 4.67%
chr14:103034592-103034618, HeLa rtTA-HIV-DMls cells, replicates 25, 26, 27
  PSI MARK3_1: 20.00 and 13.00 and 16.00
chr14:103034592-103034618, mean PSI 5193892 minus DMSO, n=3, P Value 0.734
  DPSI MARK3_1: 1.00%
chr14:103036246-103036290, HeLa rtTA-HIV-DMls cells, replicates 25, 26, 27
  PSI MARK3_1: 11.00 (2×) and 9.00
chr15:61140450-61140525, HeLa rtTA-HIV-DMls cells, replicates 25, 26, 27
  PSI TPM1_1: 84.00 and 73.00 and 67.00
chr15:61140450-61140525, mean PSI 5193892 minus DMSO, n=3
  DPSI TPM1_1: -6.67%
chr15:61140965-61141040, HeLa rtTA-HIV-DMls cells, replicates 25, 26, 27
  PSI TPM1_1: 16.00 and 27.00 and 33.00
chr15:61140965-61141040, mean PSI 5193892 minus DMSO, n=3
  DPSI TPM1_1: 6.67%
chr15:61406400-61406485, HeLa rtTA-HIV-DMls cells, replicates 25, 26, 27
  PSI CA12_1: 96.00 and 100.00 and 95.00
chr15:61406400-61406485, mean PSI 5193892 minus DMSO, n=3, P Value 0.851
  DPSI CA12_1: 0.33%
chr15:61407349-61407382, HeLa rtTA-HIV-DMls cells, replicates 25, 26, 27
  PSI CA12_1: 15.00 and 7.00 and 4.00
chr17:17024646-17024708, HeLa rtTA-HIV-DMls cells, replicates 25, 26, 27
  PSI MRIP_1: 32.00 and 31.00 (2×)
chr17:17024646-17024708, mean PSI 5193892 minus DMSO, n=3, P Value 0.101
  DPSI MRIP_1: 1.00%
chr17:37919833-37920004, HeLa rtTA-HIV-DMls cells, replicates 25, 26, 27
  PSI ATP6V0A1_1: 81.00 and 86.00 and 77.00
chr17:37919833-37920004, mean PSI 5193892 minus DMSO, n=3, P Value 0.331
  DPSI ATP6V0A1_1: 3.33%
chr17:46408223-46408261, HeLa rtTA-HIV-DMls cells, replicates 25, 26, 27
  PSI SPAG9_1: 25.00 and 17.00 and 16.00
chr17:54433741-54433857, HeLa rtTA-HIV-DMls cells, replicates 25, 26, 27
  PSI TRIM37_1: 69.00 and 71.00 and 68.00
chr17:54433741-54433857, mean PSI 5193892 minus DMSO, n=3, P Value 0.063
  DPSI TRIM37_1: -4.33%
chr17:68720412-68720474, HeLa rtTA-HIV-DMls cells, replicates 25, 26, 27
  PSI FAM104A_1: 15.00 and 20.00 and 18.00
chr17:68720412-68720474, mean PSI 5193892 minus DMSO, n=3, P Value 0.523
  DPSI FAM104A_1: -2.33%
chr17:71598005-71598035, HeLa rtTA-HIV-DMls cells, replicates 25, 26, 27
  PSI EXOC7_1: 35.00 and 23.00 and 25.00
chr17:71598005-71598035, mean PSI 5193892 minus DMSO, n=3, P Value 0.709
  DPSI EXOC7_1: 2.67%
chr17:71598819-71598911, HeLa rtTA-HIV-DMls cells, replicates 25, 26, 27
  PSI EXOC7_1: 27.00
chr17:71598819-71598911, mean PSI 5193892 minus DMSO, n=3, P Value 0.003
  DPSI EXOC7_1: 5.67%
chr18:46054554-46054721, HeLa rtTA-HIV-DMls cells, replicates 25, 26, 27
  PSI MBD1_1: 28.00 and 15.00 and 9.00
chr21:26291546-26291602, HeLa rtTA-HIV-DMls cells, replicates 25, 26, 27
  PSI APP_1: 30.00 and 32.00 and 34.00
chr21:26291546-26291602, mean PSI 5193892 minus DMSO, n=3, P Value 0.279
  DPSI APP_1: 1.67%
chr21:26294201-26294368, HeLa rtTA-HIV-DMls cells, replicates 25, 26, 27
  PSI APP_1: 71.00 and 77.00 and 81.00
chr22:41327919-41328006, HeLa rtTA-HIV-DMls cells, replicates 25, 26, 27
  PSI POLDIP3_1: 68.00 and 67.00 and 64.00
chr22:41327919-41328006, mean PSI 5193892 minus DMSO, n=3, P Value 0.421
  DPSI POLDIP3_1: 2.33%
[1]
  AS events with DPSI ≤ -10%: 7
  AS events with DPSI ≥ 10%: 2
  AS events with P ≤ 0.05: 18
